Source: patent US5268308A, “Immunoassay for pyridostigmine” (priority 1989, dated 1993)
“And” between values parts separate entries of the source, which are not always exact repeats. Equal entries are not always repeated. Where two headings read alike, the source gives them in different places.

What was measured:
[1] = tested on: patients; conditions: cited from earlier work
[2] = tested on: central nervous system; conditions: moderate doses; cited from earlier work
[3] = biological solutions, particularly plasma and blood; cited from earlier work
[4] = tested on: acetylcholinesterase; conditions: cited from earlier work
[5] = Pyridostigmine in various rat organs after intramuscular dose, by RIA; format: in vivo; conditions: 1.0 mg/kg i.m.
Protocol: (§1) To further validate the RIA and the antibody specificity of the present invention, additional rat studies were conducted. Male rats were housed two per cage at 23° C. with a twelve hour on-off light cycle. The animals were given food and water ad libitum. After sixty days, food was withheld for twelve hours. Then pyridostigmine was administered (1.0 mg. of pyridostigmine bromide in physiologic saline/Kg) intramuscularly to the rats weighing between 450 and 550 grams.
(§2) Groups of three animals were sacrificed by using inhalation anesthetic, Fluothane (0.01% thymol, w/w; and 0.00025% ammonia, w/w) Ayerst Laboratories, New York, N.Y. at various times after dosing, namely at 0, 5, 10, 15, 30, 60 minutes and at 2, 3, 4 and 6 hours. Blood was collected via heart puncture, and serum was separated by centrifugation at 2000 xg for 20 minutes. Table 4 gives the pyridostigmine level in the plasma of three male rats for each time interval as determined by the RIA of the present invention.
The brain, fat, heart, muscle and spleen were also removed from the sacrificed rats. The organs from each time period were pooled and kept frozen at -85° C. until analyzed. In preparing tissue homogenates for analysis, tissue samples were first brought to room temperature. Next the tissue samples were washed with ice-cold saline, blotted dry, weighed and homogenized in an ice-cold solution ([…], 0.5%. Triton X, 150 mM sodium chloride, pH 7.4; 2:1, v/w) with a Biohomogenizer (from Biospect Products Inc., Bartlesville, OK), cooling the tubes with ice as needed. The suspension was centrifuged at 15,000 ×g for 30 minutes at […] The supernatant was collected, and the pellet was mixed once more (1:1, w/v) with the solution, and centrifuged as described earlier. The supernatants for like samples were combined. The RIA of the present invention was then followed to determine the amounts of pyridostigmine in the various rat organs. The results of the RIA are given in.

[6] = Pyridostigmine level in rat sera after intramuscular dose, by RIA; format: in vivo; conditions: for concentration at 5 min / concentration at 10 min / concentration at 0.25 h / concentration at 0.5 h / concentration at 1 h / concentration at 2 h / concentration at 3 h / concentration at 4 h: rat, serum, im
Protocol: as §1, §2

In the case of `CN(C)C(=O)Oc1ccc[n+](C)c1` [Pyridostigmine], the “side effect on intravenous administration” value ([1]; administered intraveneously) is given as “thrombophlebitis”, the adverse muscarinic effects ([1]; certain patients) is given as “nausea, vomitin , diarrhea, miosis, excessive salivation and sweating, abdomimal cramps, bradycardia, bronchial secretion and bronchospasm” and the “toxicity relative to therapeutic levels” value ([1]; clinical use) is given as “toxic at levels very close to those which produce therapeutic results”. The other side effects ([1]; human, in vivo) was “generalized weakness, muscle cramps, fasciculation, hypotension”, the “effect of substantial over administration” value ([1]; overdose) was “cholinergic crisis leading to death” and the “effect on the central nervous system” value [2] was “usually do not effect the central nervous system”. For the same compound, the in vitro hydrolysis [3] was “extensive in vitro hydrolysis”, the cholinesterase inhibition [4] was “reversible cholinesterase inhibitor” and the “Pyridostigmine in rat organs” value ([5]; Brain, 1 HR) was 5.06 ng/mg protein. The “Pyridostigmine in rat organs” value ([5]; Brain, 2 HR) was 4.63 ng/mg protein, the “Pyridostigmine in rat organs” value ([5]; Brain, 3 HR) was 3.92 ng/mg protein and the “Pyridostigmine in rat organs” value ([5]; Brain, 4 HR) was 3.55 ng/mg protein. For the same compound, the “Pyridostigmine in rat organs” value ([5]; Brain, 6 HR) was 2.62 ng/mg protein, the “Pyridostigmine in rat organs” value ([5]; Brain, 5 min) was 3.63 ng/mg protein and the “Pyridostigmine in rat organs” value ([5]; Brain, 10 min) was 7.65 ng/mg protein. The “Pyridostigmine in rat organs” value ([5]; Brain, 15 min) was 6.32 ng/mg protein, the “Pyridostigmine in rat organs” value ([5]; Brain, 30 min) was 6.11 ng/mg protein and the “Pyridostigmine in rat organs” value ([5]; Fat, 1 HR) was 8.69 ng/mg protein. The “Pyridostigmine in rat organs” value ([5]; Fat, 2 HR) was 6.46 ng/mg protein, the “Pyridostigmine in rat organs” value ([5]; Fat, 3 HR) was 5.73 ng/mg protein and the “Pyridostigmine in rat organs” value ([5]; Fat, 4 HR) was 3.26 ng/mg protein. For the same compound, the “Pyridostigmine in rat organs” value ([5]; Fat, 6 HR) was 2.91 ng/mg protein, the “Pyridostigmine in rat organs” value ([5]; Fat, 5 min) was 5.98 ng/mg protein and the “Pyridostigmine in rat organs” value ([5]; Fat, 10 min) was 8.11 ng/mg protein. The “Pyridostigmine in rat organs” value ([5]; Fat, 15 min) was 15.37 ng/mg protein, the “Pyridostigmine in rat organs” value ([5]; Fat, 30 min) was 9.05 ng/mg protein and the “Pyridostigmine in rat organs” value ([5]; Heart, 1 HR) was 78.29 ng/mg protein. The “Pyridostigmine in rat organs” value ([5]; Heart, 2 HR) was 52.4 ng/mg protein, the “Pyridostigmine in rat organs” value ([5]; Heart, 3 HR) was 48.57 ng/mg protein and the “Pyridostigmine in rat organs” value ([5]; Heart, 4 HR) was 23.11 ng/mg protein. The “Pyridostigmine in rat organs” value ([5]; Heart, 6 HR) was 8.52 ng/mg protein, the “Pyridostigmine in rat organs” value ([5]; Heart, 5 min) was 43.78 ng/mg protein and the “Pyridostigmine in rat organs” value ([5]; Heart, 10 min) was 57.5 ng/mg protein. For the same compound, the “Pyridostigmine in rat organs” value ([5]; Heart, 15 min) was 70.4 ng/mg protein, the “Pyridostigmine in rat organs” value ([5]; Heart, 30 min) was 75.96 ng/mg protein and the “Pyridostigmine in rat organs” value ([5]; Muscle, 1 HR) was 9.46 ng/mg protein. For the same compound, the “Pyridostigmine in rat organs” value ([5]; Muscle, 2 HR) was 4.99 ng/mg protein, the “Pyridostigmine in rat organs” value ([5]; Muscle, 3 HR) was 4.8 ng/mg protein and the “Pyridostigmine in rat organs” value ([5]; Muscle, 4 HR) was 3.94 ng/mg protein. For the same compound, the “Pyridostigmine in rat organs” value ([5]; Muscle, 6 HR) was 3.08 ng/mg protein, the “Pyridostigmine in rat organs” value ([5]; Muscle, 5 min) was 9.63 ng/mg protein and the “Pyridostigmine in rat organs” value ([5]; Muscle, 10 min) was 13.57 ng/mg protein. For the same compound, the “Pyridostigmine in rat organs” value ([5]; Muscle, 15 min) was 11.67 ng/mg protein, the “Pyridostigmine in rat organs” value ([5]; Muscle, 30 min) was 10.08 ng/mg protein and the “Pyridostigmine in rat organs” value ([5]; Spleen, 1 HR) was 2.48 ng/mg protein. For the same compound, the “Pyridostigmine in rat organs” value ([5]; Spleen, 2 HR) was 2.40 ng/mg protein, the “Pyridostigmine in rat organs” value ([5]; Spleen, 3 HR) was 2.03 ng/mg protein and the “Pyridostigmine in rat organs” value ([5]; Spleen, 4 HR) was 1.92 ng/mg protein. For the same compound, the “Pyridostigmine in rat organs” value ([5]; Spleen, 6 HR) was 1.86 ng/mg protein, the “Pyridostigmine in rat organs” value ([5]; Spleen, 5 min) was 10.35 ng/mg protein and the “Pyridostigmine in rat organs” value ([5]; Spleen, 10 min) was 6.26 ng/mg protein. For the same compound, the “Pyridostigmine in rat organs” value ([5]; Spleen, 15 min) was 6.15 ng/mg protein, the “Pyridostigmine in rat organs” value ([5]; Spleen, 30 min) was 4.44 ng/mg protein and the “Pyridostigmine in the Rat Sera, Mean ± S.D.” value ([6]; 0 min, 1.0 mg/kg pyridostigmine bromide i.m., male rats) was 0 ng/mL. The “Pyridostigmine in the Rat Sera, individual animals” value (from here on “Pyridostigmine … individual animals”) ([6]; 0 min, 1.0 mg/kg pyridostigmine bromide i.m., male rats #1, #2, #3 in order) was 0 ng/mL, the “Pyridostigmine … individual animals” value ([6]; 5 min, 1.0 mg/kg i.m., male rats #1, #2 in order, 1 mg/kg) was 550 ng/mL and the “Pyridostigmine … individual animals” value ([6]; 10 min, 1.0 mg/kg i.m., male rats #1, #2 in order, 1 mg/kg) was 470 ng/mL. The “Pyridostigmine … individual animals” value ([6]; 15 min, 1.0 mg/kg i.m., male rats #1, #2, #3 in order, 1 mg/kg) was 300 ng/mL, the “Pyridostigmine … individual animals” value ([6]; 30 min, 1.0 mg/kg i.m., male rats #1, #2, #3 in order, 1 mg/kg) was 220 ng/mL and the “Pyridostigmine … individual animals” value ([6]; 60 min, 1.0 mg/kg i.m., male rats #1, #2, #3 in order, 1 mg/kg) was 110 ng/mL. For the same compound, the “Pyridostigmine … individual animals” value ([6]; 2 hr, 1.0 mg/kg i.m., male rats #1, #2, #3 in order, 1 mg/kg, 120 min) was 25 ng/mL and 15 ng/mL, the “Pyridostigmine … individual animals” value ([6]; 3 hr, 1.0 mg/kg i.m., male rats #1, #2 in order, 1 mg/kg, 180 min) was 14 ng/mL and the “Pyridostigmine … individual animals” value ([6]; 4 hr, 1.0 mg/kg i.m., male rats #1, #2, #3 in order, 1 mg/kg, 240 min) was 5 ng/mL and 6.5 ng/mL. It also gave a concentration at 5 min ([6]; 1 mg/kg, 5 min, 1.0 mg/kg i.m., male rats #1, #2 in order, read-out: Pyridostigmine in the Rat Sera, individual animals) of 600 ng/mL, a concentration at 5 min ([6]; 1 mg/kg, 5 min, 1.0 mg/kg i.m., male rats, read-out: Pyridostigmine in the Rat Sera, Mean ± S.D.) of 575 ± 35.4 ng/mL and a concentration at 10 min ([6]; 1 mg/kg, 10 min, 1.0 mg/kg i.m., male rats #1, #2 in order, read-out: Pyridostigmine in the Rat Sera, individual animals) of 450 ng/mL. It also gave a concentration at 10 min ([6]; 1 mg/kg, 10 min, 1.0 mg/kg i.m., male rats, read-out: Pyridostigmine in the Rat Sera, Mean ± S.D.) of 460 ± 14.1 ng/mL, a concentration at 0.25 h ([6]; 1 mg/kg, 15 min, 1.0 mg/kg i.m., male rats #1, #2, #3 in order, read-out: Pyridostigmine in the Rat Sera, individual animals) of 400 ng/mL and a concentration at 0.25 h ([6]; 1 mg/kg, 15 min, 1.0 mg/kg i.m., male rats, read-out: Pyridostigmine in the Rat Sera, Mean ± S.D.) of 387 ± 80.8 ng/mL. It also gave a concentration at 0.5 h ([6]; 1 mg/kg, 30 min, 1.0 mg/kg i.m., male rats #1, #2, #3 in order, read-out: Pyridostigmine in the Rat Sera, individual animals) of 250 ng/mL, a concentration at 0.5 h ([6]; 1 mg/kg, 30 min, 1.0 mg/kg i.m., male rats, read-out: Pyridostigmine in the Rat Sera, Mean ± S.D.) of 290 ± 96.4 ng/mL and a concentration at 1 h ([6]; 1 mg/kg, 60 min, 1.0 mg/kg i.m., male rats #1, #2, #3 in order, read-out: Pyridostigmine in the Rat Sera, individual animals) of 140 ng/mL. It also gave a concentration at 1 h ([6]; 1 mg/kg, 60 min, 1.0 mg/kg i.m., male rats, read-out: Pyridostigmine in the Rat Sera, Mean ± S.D.) of 130 ± 17.3 ng/mL, a concentration at 2 h ([6]; 1 mg/kg, 2 hr, 1.0 mg/kg i.m., male rats #1, #2, #3 in order, read-out: Pyridostigmine in the Rat Sera, individual animals) of 24 ng/mL and a concentration at 2 h ([6]; 1 mg/kg, 2 hr, 1.0 mg/kg i.m., male rats, read-out: Pyridostigmine in the Rat Sera, Mean ± S.D.) of 21 ± 5.51 ng/mL. The concentration at 3 h ([6]; 1 mg/kg, 3 hr, 1.0 mg/kg i.m., male rats #1, #2 in order, read-out: Pyridostigmine in the Rat Sera, individual animals) was 12 ng/mL, the concentration at 3 h ([6]; 1 mg/kg, 3 hr, 1.0 mg/kg i.m., male rats, read-out: Pyridostigmine in the Rat Sera, Mean ± S.D.) was 13 ± 1.41 ng/mL and the concentration at 4 h ([6]; 1 mg/kg, 4 hr, 1.0 mg/kg i.m., male rats #1, #2, #3 in order, read-out: Pyridostigmine in the Rat Sera, individual animals) was 7.5 ng/mL. The concentration at 4 h ([6]; 1 mg/kg, 4 hr, 1.0 mg/kg i.m., male rats, read-out: Pyridostigmine in the Rat Sera, Mean ± S.D.) was 6 ± 1.26 ng/mL.
